Experiments:
Human κ-Opioid (KOP) = target: T1, Human κ-Opioid (KOP) (Homo sapiens, UniProt P41145); test: Radioligand binding, human κ-opioid (KOP) membranes, filtration, [3H]-Diprenorphine; details: compound at 10 μM, [3H]-Diprenorphine
T1 construct: purchased Perkin Elmer Biosignal
Summary of the method: (§1)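 Filtration binding on cloned human receptor membranes (1 Unit/well), [125I]-Substance P for NK1 and [3H]-Diprenorphine for KOP, 1 h at room temperature. Filters PEI-presoaked, washed with cold 50 mM Tris-HCl pH 7.4, counted by scintillation; percent inhibition calculated, reference ligand defining non-specific binding.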

[1] = target: T2, Human neuropeptide Y (NPY-Y1) (Homo sapiens, UniProt P25929); test: Radioligand binding, human neuropeptide Y NPY-Y1 membranes, FlashPlate, [125I]-PYY; details: compound at 10 μM; [125I]-PYY
T2 construct: purchased Perkin Elmer Biosignal
T2 sequence (P25929 1-384): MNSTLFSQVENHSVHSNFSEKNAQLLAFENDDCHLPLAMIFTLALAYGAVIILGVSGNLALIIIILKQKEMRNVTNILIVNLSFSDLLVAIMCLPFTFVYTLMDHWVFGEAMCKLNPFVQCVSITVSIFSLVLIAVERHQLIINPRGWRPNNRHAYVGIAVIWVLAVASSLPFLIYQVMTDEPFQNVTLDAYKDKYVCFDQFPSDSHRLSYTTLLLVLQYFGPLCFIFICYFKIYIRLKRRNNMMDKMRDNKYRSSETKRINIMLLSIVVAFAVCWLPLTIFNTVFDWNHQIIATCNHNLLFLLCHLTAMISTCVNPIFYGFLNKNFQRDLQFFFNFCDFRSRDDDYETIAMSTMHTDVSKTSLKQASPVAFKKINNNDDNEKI
Summary of the method: (§2)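 Cloned human receptor membranes were coated onto FlashPlate wells and incubated with radioligand and compound (added from a 0.5 mM DMSO daughter plate) for 1 hour at room temperature in the dark. Scintillation counting gave percent inhibition, with DMSO defining total and reference ligand defining non-specific binding.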

Mouse urotensin (mUR2) = target: T3, Mouse urotensin (mUR2) (Mus musculus, UniProt Q8VIH9); test: Radioligand binding, mouse urotensin mUR2 membranes, FlashPlate, [125I]-Urotensin II; details: compound at 10 μM; [125I]-Urotensin II
T3 construct: purchased Perkin Elmer Biosignal
T3 sequence (Q8VIH9 1-385): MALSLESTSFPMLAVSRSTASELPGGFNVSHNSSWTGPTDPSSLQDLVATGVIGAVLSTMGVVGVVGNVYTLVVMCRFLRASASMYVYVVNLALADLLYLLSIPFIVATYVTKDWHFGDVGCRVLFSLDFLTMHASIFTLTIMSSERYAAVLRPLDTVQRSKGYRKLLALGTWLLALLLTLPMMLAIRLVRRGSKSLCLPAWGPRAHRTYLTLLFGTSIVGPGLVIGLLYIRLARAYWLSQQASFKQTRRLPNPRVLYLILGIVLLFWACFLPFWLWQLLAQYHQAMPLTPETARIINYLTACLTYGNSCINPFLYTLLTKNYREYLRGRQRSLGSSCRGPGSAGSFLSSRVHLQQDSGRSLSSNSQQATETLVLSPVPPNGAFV
Summary of the method: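 Cloned mouse urotensin (mUR2) receptor membranes from Perkin Elmer Biosignal were immobilized in FlashPlate microplates using a proprietary coating. Each well got 19.5 μl buffer, then 0.5 μl of DMSO, reference ligand, or compound. Adding 5 μl of [125I]-Urotensin II, diluted to 5× final concentration in binding buffer, started binding. Plates were sealed with TopSeal-A and incubated 1 hour at room temperature in the dark. Wells were counted for 30 seconds each on a TopCount after a 60-second delay, and percentage inhibition was calculated.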

Human Melanocortin (MC3) = target: T4, Human Melanocortin (MC3) (Homo sapiens, UniProt P41968); test: Radioligand binding, human melanocortin MC3 membranes, FlashPlate, [125I]-NDP-αMSH; details: compound at 10 μM; [125I]-NDP-αMSH
T4 construct: purchased Perkin Elmer Biosignal
T4 sequence (P41968 whole entry): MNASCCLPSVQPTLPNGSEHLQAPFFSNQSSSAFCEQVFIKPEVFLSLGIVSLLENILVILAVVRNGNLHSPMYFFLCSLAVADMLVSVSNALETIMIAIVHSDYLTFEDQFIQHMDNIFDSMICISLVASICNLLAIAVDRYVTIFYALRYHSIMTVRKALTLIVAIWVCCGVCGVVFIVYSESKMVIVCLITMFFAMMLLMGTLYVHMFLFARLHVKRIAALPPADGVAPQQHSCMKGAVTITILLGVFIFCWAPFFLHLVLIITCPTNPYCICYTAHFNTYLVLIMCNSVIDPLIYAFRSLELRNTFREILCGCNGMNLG
Summary of the method: as §2

Human δ-opioid (DOP) = target: T5, Human δ-opioid (DOP) (Homo sapiens, UniProt P41143); test: Radioligand binding, human δ-opioid (DOP) membranes, FlashPlate, [3H]-Bremazocine; details: compound at 10 μM; [3H]-Bremazocine
T5 construct: purchased Perkin Elmer Biosignal
T5 sequence (P41143 whole entry): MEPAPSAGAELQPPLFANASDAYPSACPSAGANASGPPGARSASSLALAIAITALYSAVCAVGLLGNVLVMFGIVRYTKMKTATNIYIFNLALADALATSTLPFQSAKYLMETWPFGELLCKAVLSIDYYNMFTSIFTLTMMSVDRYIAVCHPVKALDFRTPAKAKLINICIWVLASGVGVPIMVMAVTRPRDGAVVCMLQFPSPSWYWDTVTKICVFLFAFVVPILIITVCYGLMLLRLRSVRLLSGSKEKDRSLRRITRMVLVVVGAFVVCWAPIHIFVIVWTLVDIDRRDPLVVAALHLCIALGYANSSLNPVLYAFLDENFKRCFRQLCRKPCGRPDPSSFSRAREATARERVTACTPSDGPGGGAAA
Summary of the method: as §2

[2] = target: T6, Human melanin-concentrating hormone (MCH1) (Homo sapiens, UniProt Q99705); test: Radioligand binding, human melanin-concentrating hormone MCH1 membranes, FlashPlate, [125I]-S36057; details: compound at 10 μM; [125I]-S36057
T6 construct: purchased Perkin Elmer Biosignal
T6 sequence (Q99705 whole entry): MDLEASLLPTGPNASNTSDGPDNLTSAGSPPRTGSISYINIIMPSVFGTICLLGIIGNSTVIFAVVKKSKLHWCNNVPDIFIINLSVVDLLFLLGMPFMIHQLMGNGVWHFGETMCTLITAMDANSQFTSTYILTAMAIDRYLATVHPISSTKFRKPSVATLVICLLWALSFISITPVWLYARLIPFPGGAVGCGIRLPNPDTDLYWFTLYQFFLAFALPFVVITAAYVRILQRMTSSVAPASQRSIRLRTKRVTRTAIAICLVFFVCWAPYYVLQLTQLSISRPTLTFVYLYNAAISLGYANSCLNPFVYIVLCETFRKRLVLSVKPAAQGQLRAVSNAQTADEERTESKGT
Summary of the method: as §2

Human Melanocortin (MC4) = target: T7, Human Melanocortin (MC4) (Homo sapiens, UniProt P32245); test: Radioligand binding, human melanocortin MC4 membranes, FlashPlate, [125I]-NDP-αMSH; details: compound at 10 μM; [125I]-NDP-αMSH
T7 construct: purchased Perkin Elmer Biosignal
T7 sequence (P32245 whole entry): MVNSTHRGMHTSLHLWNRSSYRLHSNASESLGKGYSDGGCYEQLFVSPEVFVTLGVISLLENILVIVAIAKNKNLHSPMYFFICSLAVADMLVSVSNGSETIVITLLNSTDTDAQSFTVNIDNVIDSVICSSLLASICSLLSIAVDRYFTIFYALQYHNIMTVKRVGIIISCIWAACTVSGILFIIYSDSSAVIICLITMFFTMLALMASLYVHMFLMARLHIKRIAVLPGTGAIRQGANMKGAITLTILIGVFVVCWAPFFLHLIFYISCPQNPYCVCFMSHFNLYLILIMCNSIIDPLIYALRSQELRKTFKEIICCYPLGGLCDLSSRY
Summary of the method: as §2

Human neurokinin (NK1) = target: T8, Human neurokinin (NK1) (Homo sapiens, UniProt P25103); test: Radioligand binding, human neurokinin NK1 membranes, filtration, [125I]-Substance P; details: compound at 10 μM; [125I]-Substance P
T8 construct: purchased Perkin Elmer Biosignal
T8 sequence (P25103 whole entry): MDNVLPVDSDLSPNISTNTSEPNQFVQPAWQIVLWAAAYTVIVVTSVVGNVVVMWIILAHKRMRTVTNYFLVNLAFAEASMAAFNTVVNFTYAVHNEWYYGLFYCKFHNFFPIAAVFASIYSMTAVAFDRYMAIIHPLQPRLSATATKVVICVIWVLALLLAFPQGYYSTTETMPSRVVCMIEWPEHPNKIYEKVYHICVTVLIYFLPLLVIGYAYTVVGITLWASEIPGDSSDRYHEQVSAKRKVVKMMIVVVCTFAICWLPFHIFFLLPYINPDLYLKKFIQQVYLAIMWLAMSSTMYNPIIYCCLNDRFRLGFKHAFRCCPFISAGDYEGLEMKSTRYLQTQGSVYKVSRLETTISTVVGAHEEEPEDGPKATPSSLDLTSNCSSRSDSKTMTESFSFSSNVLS
Summary of the method: as §1

Human μ-opioid (MOP) = target: T9, Human μ-opioid (MOP) (Homo sapiens, UniProt P35372); test: Radioligand binding, human μ-opioid (MOP) membranes, FlashPlate, [3H]-Naloxone; details: compound at 10 μM; [3H]-Naloxone
T9 construct: purchased Perkin Elmer Biosignal
T9 sequence (P35372 whole entry): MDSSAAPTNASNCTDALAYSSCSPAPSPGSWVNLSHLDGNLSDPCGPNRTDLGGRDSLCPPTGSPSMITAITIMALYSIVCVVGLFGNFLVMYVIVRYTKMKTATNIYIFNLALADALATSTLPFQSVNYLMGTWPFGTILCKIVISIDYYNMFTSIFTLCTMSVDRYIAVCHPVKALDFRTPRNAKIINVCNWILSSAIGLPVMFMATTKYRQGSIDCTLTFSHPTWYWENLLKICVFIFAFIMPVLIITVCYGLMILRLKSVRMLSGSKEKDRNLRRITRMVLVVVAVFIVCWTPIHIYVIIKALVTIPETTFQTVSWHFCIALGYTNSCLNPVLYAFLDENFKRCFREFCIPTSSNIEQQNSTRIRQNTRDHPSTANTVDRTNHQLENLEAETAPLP
Summary of the method: as §2

Human opioid (ORL1) = target: T10, Human opioid (ORL1) (Homo sapiens, UniProt P41146); test: Radioligand binding, human opioid ORL1 membranes, FlashPlate, [125I]-Nociceptin; details: compound at 10 μM; [125I]-Nociceptin
T10 construct: purchased Perkin Elmer Biosignal
T10 sequence (P41146 whole entry): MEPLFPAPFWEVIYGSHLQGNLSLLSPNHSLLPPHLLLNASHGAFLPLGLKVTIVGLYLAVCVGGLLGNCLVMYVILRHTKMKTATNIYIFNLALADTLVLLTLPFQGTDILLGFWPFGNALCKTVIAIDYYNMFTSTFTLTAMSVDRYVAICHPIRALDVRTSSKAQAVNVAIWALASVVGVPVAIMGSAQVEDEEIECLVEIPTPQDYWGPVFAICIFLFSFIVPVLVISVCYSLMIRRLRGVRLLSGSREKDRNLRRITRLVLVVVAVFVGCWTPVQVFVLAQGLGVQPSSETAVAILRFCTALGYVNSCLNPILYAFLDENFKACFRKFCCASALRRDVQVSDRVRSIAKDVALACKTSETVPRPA
Summary of the method: as §2

Human melanocortin (MC5) = target: T11, Human melanocortin (MC5) (Homo sapiens, UniProt P33032); test: Radioligand binding, human melanocortin MC5 membranes, FlashPlate, [125I]-NDP-αMSH; details: compound at 10 μM; [125I]-NDP-αMSH
T11 construct: purchased Perkin Elmer Biosignal
T11 sequence (P33032 whole entry): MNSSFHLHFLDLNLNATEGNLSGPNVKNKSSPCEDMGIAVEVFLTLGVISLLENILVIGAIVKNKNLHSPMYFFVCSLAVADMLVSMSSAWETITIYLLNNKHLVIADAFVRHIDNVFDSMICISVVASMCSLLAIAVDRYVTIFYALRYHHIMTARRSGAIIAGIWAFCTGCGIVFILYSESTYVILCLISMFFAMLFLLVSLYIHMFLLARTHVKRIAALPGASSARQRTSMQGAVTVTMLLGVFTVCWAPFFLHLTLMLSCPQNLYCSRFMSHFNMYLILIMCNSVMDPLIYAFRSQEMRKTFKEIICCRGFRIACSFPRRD
Summary of the method: as §2

T1 sequence (P41145 whole entry): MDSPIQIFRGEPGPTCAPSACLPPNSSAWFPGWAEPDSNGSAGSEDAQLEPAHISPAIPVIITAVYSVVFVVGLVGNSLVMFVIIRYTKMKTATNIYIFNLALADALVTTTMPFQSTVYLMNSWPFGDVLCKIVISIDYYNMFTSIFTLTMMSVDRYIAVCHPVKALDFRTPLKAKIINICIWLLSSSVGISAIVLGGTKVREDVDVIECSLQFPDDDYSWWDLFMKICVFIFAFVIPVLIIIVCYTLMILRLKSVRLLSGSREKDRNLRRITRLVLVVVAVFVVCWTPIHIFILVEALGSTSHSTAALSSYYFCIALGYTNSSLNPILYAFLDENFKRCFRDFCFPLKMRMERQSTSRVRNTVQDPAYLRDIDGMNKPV

SMILES: COCC1OC(OCc2ccc3ccccc3c2)C(NC(=O)CCNC(=N)N)C(OCc2ccc3ccccc3c2)C1O (stereo not shown) [compound 547]
- A2: inhibition of radioligand binding, human κ-opioid (KOP) (Human κ-Opioid (KOP)): − (“−” indicates less than 50% inhibition at 10 μM)
- A9: inhibition of radioligand binding, human neuropeptide Y (NPY-Y1) [1]: − (“−” indicates less than 50% inhibition at 10 μM)
- A11: inhibition of radioligand binding, mouse urotensin (mUR2) (Mouse urotensin (mUR2)): − (“−” indicates less than 50% inhibition at 10 μM)
- A3: inhibition of radioligand binding, human melanocortin (MC3) (Human Melanocortin (MC3)): − (“−” indicates less than 50% inhibition at 10 μM)
- A1: inhibition of radioligand binding, human δ-opioid (DOP) (Human δ-opioid (DOP)): − (“−” indicates less than 50% inhibition at 10 μM)
- A6: inhibition of radioligand binding, human melanin-concentrating hormone (MCH1) [2]: + (“+” indicates greater than 50% inhibition at 10 μM)
- A4: inhibition of radioligand binding, human melanocortin (MC4) (Human Melanocortin (MC4)): − (“−” indicates less than 50% inhibition at 10 μM)
- A8: inhibition of radioligand binding, human neurokinin (NK1) (Human neurokinin (NK1)): + (“+” indicates greater than 50% inhibition at 10 μM)
- A7: inhibition of radioligand binding, human μ-opioid (MOP) (Human μ-opioid (MOP)): − (“−” indicates less than 50% inhibition at 10 μM)
- A10: inhibition of radioligand binding, human opioid (ORL1) (Human opioid (ORL1)): − (“−” indicates less than 50% inhibition at 10 μM)
- A5: inhibition of radioligand binding, human melanocortin (MC5) (Human melanocortin (MC5)): − (“−” indicates less than 50% inhibition at 10 μM)

SMILES: N=C(N)NCCC(=O)N[C@H]1C(OCc2ccc(Cl)cc2)O[C@H](COCc2ccccc2)[C@@H](O)[C@@H]1OCc1ccc2ccccc2c1 (stereo partly shown) [compound 531]
- A2: inhibition of radioligand binding, human κ-opioid (KOP) (Human κ-Opioid (KOP)): + (“+” indicates greater than 50% inhibition at 10 μM)
- A9: inhibition of radioligand binding, human neuropeptide Y (NPY-Y1) [1]: − (“−” indicates less than 50% inhibition at 10 μM)
- A11: inhibition of radioligand binding, mouse urotensin (mUR2) (Mouse urotensin (mUR2)): − (“−” indicates less than 50% inhibition at 10 μM)
- A3: inhibition of radioligand binding, human melanocortin (MC3) (Human Melanocortin (MC3)): + (“+” indicates greater than 50% inhibition at 10 μM)
- A1: inhibition of radioligand binding, human δ-opioid (DOP) (Human δ-opioid (DOP)): − (“−” indicates less than 50% inhibition at 10 μM)
- A6: inhibition of radioligand binding, human melanin-concentrating hormone (MCH1) [2]: + (“+” indicates greater than 50% inhibition at 10 μM)
- A4: inhibition of radioligand binding, human melanocortin (MC4) (Human Melanocortin (MC4)): + (“+” indicates greater than 50% inhibition at 10 μM)
- A8: inhibition of radioligand binding, human neurokinin (NK1) (Human neurokinin (NK1)): + (“+” indicates greater than 50% inhibition at 10 μM)
- A7: inhibition of radioligand binding, human μ-opioid (MOP) (Human μ-opioid (MOP)): + (“+” indicates greater than 50% inhibition at 10 μM)
- A10: inhibition of radioligand binding, human opioid (ORL1) (Human opioid (ORL1)): + (“+” indicates greater than 50% inhibition at 10 μM)
- A5: inhibition of radioligand binding, human melanocortin (MC5) (Human melanocortin (MC5)): + (“+” indicates greater than 50% inhibition at 10 μM)

SMILES: NCCC(=O)NC1C(OCc2ccc(Cl)cc2)OC(COCc2ccc(Cl)cc2)C(O)C1OCc1ccc2ccccc2c1 (single isomer, unassigned) [compound 482]
- A2: inhibition of radioligand binding, human κ-opioid (KOP) (Human κ-Opioid (KOP); 10 µM): − (“−” indicates less than 50% inhibition at 10 μM)
- A9: inhibition of radioligand binding, human neuropeptide Y (NPY-Y1) [1]: − (“−” indicates less than 50% inhibition at 10 μM)
- A11: inhibition of radioligand binding, mouse urotensin (mUR2) (Mouse urotensin (mUR2)): − (“−” indicates less than 50% inhibition at 10 μM)
- A3: inhibition of radioligand binding, human melanocortin (MC3) (Human Melanocortin (MC3)): + (“+” indicates greater than 50% inhibition at 10 μM)
- A1: inhibition of radioligand binding, human δ-opioid (DOP) (Human δ-opioid (DOP)): − (“−” indicates less than 50% inhibition at 10 μM)
- A6: inhibition of radioligand binding, human melanin-concentrating hormone (MCH1) [2]: + (“+” indicates greater than 50% inhibition at 10 μM)
- A4: inhibition of radioligand binding, human melanocortin (MC4) (Human Melanocortin (MC4)): + (“+” indicates greater than 50% inhibition at 10 μM)
- A8: inhibition of radioligand binding, human neurokinin (NK1) (Human neurokinin (NK1)): + (“+” indicates greater than 50% inhibition at 10 μM)
- A7: inhibition of radioligand binding, human μ-opioid (MOP) (Human μ-opioid (MOP)): − (“−” indicates less than 50% inhibition at 10 μM)
- A10: inhibition of radioligand binding, human opioid (ORL1) (Human opioid (ORL1)): + (“+” indicates greater than 50% inhibition at 10 μM)
- A5: inhibition of radioligand binding, human melanocortin (MC5) (Human melanocortin (MC5)): + (“+” indicates greater than 50% inhibition at 10 μM)

SMILES: COC[C@H]1OC(OCc2ccc3ccccc3c2)[C@H](NC(=O)CNC(=N)N)[C@@H](OCc2cccc(O)c2)[C@@H]1O (stereo partly shown) [compound 133]
- A2 radioligand binding, percentage inhibition (Human κ-Opioid (KOP)): − (“−” indicates less than 50% inhibition at 10 μM)
- A9 radioligand binding, percentage inhibition [1]: − (“−” indicates less than 50% inhibition at 10 μM)
- A11 radioligand binding, percentage inhibition (Mouse urotensin (mUR2)): − (“−” indicates less than 50% inhibition at 10 μM)
- A3 radioligand binding, percentage inhibition (Human Melanocortin (MC3)): − (“−” indicates less than 50% inhibition at 10 μM)
- A1 radioligand binding, percentage inhibition (Human δ-opioid (DOP)): − (“−” indicates less than 50% inhibition at 10 μM)
- A6 radioligand binding, percentage inhibition [2]: − (“−” indicates less than 50% inhibition at 10 μM)
- A4 radioligand binding, percentage inhibition (Human Melanocortin (MC4)): − (“−” indicates less than 50% inhibition at 10 μM)
- A8 radioligand binding, percentage inhibition (Human neurokinin (NK1)): − (“−” indicates less than 50% inhibition at 10 μM)
- A7 radioligand binding, percentage inhibition (Human μ-opioid (MOP)): + (“+” indicates greater than 50% inhibition at 10 μM)
- A10 radioligand binding, percentage inhibition (Human opioid (ORL1)): − (“−” indicates less than 50% inhibition at 10 μM)
- A5 radioligand binding, percentage inhibition (Human melanocortin (MC5)): − (“−” indicates less than 50% inhibition at 10 μM)

SMILES: COC[C@H]1OC(OCc2cccc(O)c2)[C@H](NC(=O)CCCNC(=N)N)[C@@H](OCc2ccc(-c3ccccc3)cc2)[C@@H]1O (stereo partly shown) [compound 144]
- A2 radioligand binding, percentage inhibition (Human κ-Opioid (KOP)): − (“−” indicates less than 50% inhibition at 10 μM)
- A9 radioligand binding, percentage inhibition [1]: − (“−” indicates less than 50% inhibition at 10 μM)
- A11 radioligand binding, percentage inhibition (Mouse urotensin (mUR2)): − (“−” indicates less than 50% inhibition at 10 μM)
- A3 radioligand binding, percentage inhibition (Human Melanocortin (MC3)): − (“−” indicates less than 50% inhibition at 10 μM)
- A1 radioligand binding, percentage inhibition (Human δ-opioid (DOP)): − (“−” indicates less than 50% inhibition at 10 μM)
- A6 radioligand binding, percentage inhibition [2]: + (“+” indicates greater than 50% inhibition at 10 μM)
- A4 radioligand binding, percentage inhibition (Human Melanocortin (MC4)): − (“−” indicates less than 50% inhibition at 10 μM)
- A8 radioligand binding, percentage inhibition (Human neurokinin (NK1)): + (“+” indicates greater than 50% inhibition at 10 μM)
- A7 radioligand binding, percentage inhibition (Human μ-opioid (MOP)): + (“+” indicates greater than 50% inhibition at 10 μM)
- A10 radioligand binding, percentage inhibition (Human opioid (ORL1)): − (“−” indicates less than 50% inhibition at 10 μM)
- A5 radioligand binding, percentage inhibition (Human melanocortin (MC5)): + (“+” indicates greater than 50% inhibition at 10 μM)
